Laboratory results published in the supplement of paper PMC10307832.

Key:
Assay in all cases: relative viability (nuclei count vs DMSO), 5 days (fraction); higher = more cells survive
DM3189 + Pictilisib = compound: C1CN(CCN1)C2=CC=C(C=C2)C3=CN4C(=C(C=N4)C5=CC=NC6=CC=CC=C56)N=C3 [DM3189] + CS(=O)(=O)N1CCN(Cc2cc3nc(-c4cccc5[nH]ncc45)nc(N4CCOCC4)c3s2)CC1 [Pictilisib] (partner 1 µM)
How it was run: (§1)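 Five library-drug doses in √10 steps were combined with a fixed anchor-drug dose, or a single drug was given alone, by pin tool to lung cancer cell lines in 1536-well plates the day after seeding. Nuclei were stained and counted after 5 days. Relative viability is the nuclei count in treated wells over that in vehicle wells, taken as the median of duplicate plates.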

DM3189 + Palbociclib = compound: C1CN(CCN1)C2=CC=C(C=C2)C3=CN4C(=C(C=N4)C5=CC=NC6=CC=CC=C56)N=C3 [DM3189] + CC(=O)c1c(C)c2cnc(Nc3ccc(N4CCNCC4)cn3)nc2n(C2CCCC2)c1=O [Palbociclib] (partner 0.5 µM)
How it was run: as §1

DM3189 + Trametinib = compound: C1CN(CCN1)C2=CC=C(C=C2)C3=CN4C(=C(C=N4)C5=CC=NC6=CC=CC=C56)N=C3 [DM3189] + CC(=O)Nc1cccc(-n2c(=O)n(C3CC3)c(=O)c3c(Nc4ccc(I)cc4F)n(C)c(=O)c(C)c32)c1 [Trametinib] (partner 0.02 µM)
How it was run: as §1

DM3189 + Luminespib = compound: C1CN(CCN1)C2=CC=C(C=C2)C3=CN4C(=C(C=N4)C5=CC=NC6=CC=CC=C56)N=C3 [DM3189] + CCNC(=O)c1noc(-c2cc(C(C)C)c(O)cc2O)c1-c1ccc(CN2CCOCC2)cc1 [Luminespib] (partner 0.01 µM)
How it was run: as §1

DM3189 + Lapatinib = compound: C1CN(CCN1)C2=CC=C(C=C2)C3=CN4C(=C(C=N4)C5=CC=NC6=CC=CC=C56)N=C3 [DM3189] + CS(=O)(=O)CCNCc1ccc(-c2ccc3ncnc(Nc4ccc(OCc5cccc(F)c5)c(Cl)c4)c3c2)o1 [Lapatinib] (partner 2 µM)
How it was run: as §1

Cell Line	relative viability (DM3189 + Pictilisib; first compound 0.08 µM)	relative viability (DM3189 + Pictilisib; first compound 0.253 µM)	relative viability (DM3189 + Pictilisib; first compound 0.8 µM)	relative viability (DM3189 + Pictilisib; first compound 2.53 µM)	relative viability (DM3189 + Palbociclib; first compound 0.08 µM)	relative viability (DM3189 + Palbociclib; first compound 0.253 µM)	relative viability (DM3189 + Palbociclib; first compound 0.8 µM)	relative viability (DM3189 + Palbociclib; first compound 2.53 µM)	relative viability (DM3189 + Trametinib; first compound 0.08 µM)	relative viability (DM3189 + Trametinib; first compound 0.253 µM)	relative viability (DM3189 + Trametinib; first compound 0.8 µM)	relative viability (DM3189 + Trametinib; first compound 2.53 µM)	relative viability (DM3189 + Luminespib; first compound 0.08 µM)	relative viability (DM3189 + Luminespib; first compound 0.253 µM)	relative viability (DM3189 + Luminespib; first compound 0.8 µM)	relative viability (DM3189 + Luminespib; first compound 2.53 µM)	relative viability (DM3189 + Lapatinib; first compound 0.08 µM)	relative viability (DM3189 + Lapatinib; first compound 0.253 µM)	relative viability (DM3189 + Lapatinib; first compound 0.8 µM)	relative viability (DM3189 + Lapatinib; first compound 2.53 µM)
NCI-H1793	0.311	0.306	0.281	0.31	0.414	0.432	0.448	0.451	0.507	0.603	0.532	0.742	0.184	0.196	0.171	0.174	0.653	0.773	1.01	0.711
NCI-H1915	0.974	0.915	0.646	0.891	0.506	0.47	0.437	0.481	0.325	0.292	0.305	0.307	0.697	0.817	0.606	0.485	1	0.867	0.705	0.737
NCI-H1944	0.405	0.336	–	0.389	0.351	0.327	0.288	0.301	0.463	0.422	0.42	0.413	0.813	0.673	–	0.684	0.884	0.765	–	0.803
NCI-H1975	0.42	0.309	0.269	0.201	0.697	0.57	0.379	0.333	0.37	0.367	0.316	0.299	0.302	0.254	0.162	0.263	1.15	0.952	0.725	0.764
NCI-H1993	–	0.85	0.852	0.718	0.779	0.809	0.571	0.736	0.504	0.501	0.641	0.486	0.785	0.705	0.712	0.885	–	0.533	0.722	0.746
NCI-H2009	1	0.725	0.572	0.75	0.264	0.195	0.184	0.217	0.276	0.268	0.263	0.23	1.06	1.01	0.932	1.06	1.13	0.888	0.684	0.916
NCI-H2023	0.26	0.24	0.201	0.235	0.38	0.396	0.4	0.336	0.469	0.534	0.532	0.374	0.811	0.863	1.09	0.663	1.1	0.739	0.503	0.286
NCI-H2085	0.379	0.473	0.393	0.409	0.47	0.457	0.468	0.537	0.521	0.613	0.598	0.668	0.359	0.389	0.478	0.951	0.806	0.77	0.765	0.848
NCI-H2087	1.06	0.808	0.675	0.818	0.212	0.197	0.224	0.238	0.24	0.17	0.228	0.219	0.187	0.145	0.139	0.176	1.27	0.871	0.846	1.06
NCI-H2126	0.544	0.53	0.465	0.478	0.346	0.348	0.367	0.374	0.609	0.534	0.509	0.524	1.13	0.875	0.913	0.889	0.869	0.775	0.673	0.732
NCI-H2170	0.308	0.301	0.288	0.291	0.484	0.363	0.368	0.347	1.09	0.96	0.835	0.825	0.939	0.836	0.762	0.764	0.277	0.256	0.256	0.268
NCI-H2228	0.362	0.33	0.329	0.283	1.09	0.75	0.472	0.307	0.476	0.494	0.581	0.236	0.112	0.132	0.144	0.167	1.51	1.08	0.865	0.263
NCI-H2347	0.493	0.452	0.569	0.517	0.412	0.4	0.417	0.435	0.28	0.262	0.276	0.31	0.671	0.504	0.565	0.485	1.09	0.866	0.703	0.97
NCI-H2405	0.467	0.378	0.422	0.408	0.54	0.55	0.494	0.453	0.669	0.615	0.614	0.579	0.704	0.754	0.646	0.491	1.14	1.01	0.979	0.958
NCI-H3122	0.568	0.466	0.601	0.502	0.2	0.178	0.154	0.162	0.19	0.205	0.181	0.217	0.0997	0.103	0.072	0.0922	0.976	1.02	0.911	0.878
